Experimental data as given in patent publication US8022225B2, “Triazole derivative” (Taisho Pharmaceutical Co., Ltd, priority 2004, dated 2011).

Tests used:
human Edg-1(S1P1) [1] = biological target: T1, human Edg-1(S1P1) (Homo sapiens, UniProt P21453); assay: Membrane system binding test: inhibition of [33P]-S1P binding to the membrane fraction of Edg-1(S1P1) gene transferred HEK-293 cells; details: 10 μM compound; [33P]-S1P 0.1 nM; membrane fraction of Edg-1(S1P1) gene transferred HEK-293 cells; read-out: Membrane system binding test % inhibition (10 μM)
T1 construct: expressed in transfected cells; host or cells: HEK-293
Procedure, shortened: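 Membranes from HEK-293 cells transfected with Edg-1(S1P1) incubated 1 h at 30 °C with 0.1 nM [^33P]-S1P and compound at 10^−5 M (0.1% DMSO), pH 7.4 buffer with fatty acid-free BSA. Filter-bound radioactivity counted; inhibition rate calculated against no-compound binding, with untransfected-cell background subtracted.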

human Edg-1(S1P1) [2] = biological target: T1, human Edg-1(S1P1); assay: Cell system binding test: inhibition of [3H]-S1P binding to Edg-1(S1P1) gene transferred HEK-293 cells; details: 10 μM compound, [3H]-S1P 10 nM, read-out: Cell system binding test % inhibition (10 μM)

T1 sequence (P21453 whole entry): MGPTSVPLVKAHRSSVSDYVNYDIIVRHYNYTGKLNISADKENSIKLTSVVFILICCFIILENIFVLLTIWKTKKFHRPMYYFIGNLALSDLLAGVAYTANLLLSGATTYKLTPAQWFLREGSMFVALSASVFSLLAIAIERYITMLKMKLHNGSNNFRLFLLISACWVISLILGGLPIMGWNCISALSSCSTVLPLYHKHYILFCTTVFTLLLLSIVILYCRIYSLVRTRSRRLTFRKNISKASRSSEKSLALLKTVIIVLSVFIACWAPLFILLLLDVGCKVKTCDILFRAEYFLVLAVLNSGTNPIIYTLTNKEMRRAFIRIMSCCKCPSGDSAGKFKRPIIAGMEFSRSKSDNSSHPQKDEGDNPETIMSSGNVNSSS

Row | SMILES | inhibition at 10 µM (human Edg-1(S1P1) [1]) [%] | inhibition at 10 µM (human Edg-1(S1P1) [2]) [%]
1 | CCn1c(OC)nnc1[C@@H](C)NS(=O)(=O)Cc1cc(Cl)cc(Cl)c1 [Compound 292] | 51.4 | 96.7
2 | CCn1c(OC)nnc1[C@@H](C)NS(=O)(=O)c1cccc(F)c1 [Compound 299] | 44.4 | 94.5
3 | CCn1c(OC)nnc1[C@@H](C)NS(=O)(=O)c1cc(Br)ccc1Br [Compound 303] | 56.1 | 97.7
4 | CCn1c(OC)nnc1[C@@H](C)NS(=O)(=O)c1cc(C)cc(C)c1 [Compound 308] | 68.1 | 95.5
5 | CCn1c(OC)nnc1[C@@H](C)NS(=O)(=O)c1ccc(OC(F)F)cc1 [Compound 309] | 46.5 | 93.2
6 | CCn1c(OC)nnc1[C@@H](C)NS(=O)(=O)c1cccc(OC(F)F)c1 [Compound 310] | 78.8 | 98.5
7 | CCn1c(OC)nnc1[C@@H](C)NS(=O)(=O)c1cc(F)cc(F)c1 [Compound 311] | 52.4 | 97.6
8 | CCn1c(OC)nnc1[C@@H](C)NS(=O)(=O)c1cc(F)c(F)c(F)c1 [Compound 313] | 93.2 | 100
9 | CCn1c(OC)nnc1[C@@H](C)NS(=O)(=O)c1ccc(Br)c(C)c1 [Compound 314] | 100 | 102
10 | CCn1c(OC)nnc1[C@@H](C)NS(=O)(=O)c1ccc(C)c(C)c1 [Compound 319] | 89.9 | 93.4
11 | CCn1c(OC)nnc1[C@@H](C)NS(=O)(=O)c1ccc(F)c(C(F)(F)F)c1 [Compound 321] | 99.7 | 100
12 | CCn1c(OC)nnc1[C@@H](C)NS(=O)(=O)c1ccc2c(c1)CCO2 [Compound 337] | 61.3 | 102
13 | CCn1c(OC)nnc1[C@@H](C)NS(=O)(=O)c1ccc2c(c1)OCCO2 [Compound 338] | 69.4 | 103
14 | CCn1c(OC)nnc1[C@@H](C)NS(=O)(=O)c1ccc2nsnc2c1 [Compound 341] | 99.4 | 99.4

Other lines, results leading:

Row | inhibition at 10 µM (human Edg-1(S1P1) [1]) [%] | inhibition at 10 µM (human Edg-1(S1P1) [2]) [%] | SMILES
15 | 57.4 | 97.5 | CCn1c(OC)nnc1[C@@H](C)NS(=O)(=O)c1cc(F)ccc1F [Compound 286]
16 | 80.1 | 100 | CCn1c(OC)nnc1[C@@H](C)NS(=O)(=O)c1ccc(F)c(F)c1 [Compound 287]
17 | 54.9 | 103 | CCn1c(OC)nnc1[C@@H](C)NS(=O)(=O)c1ccc(Br)cc1F [Compound 288]
18 | 63.6 | 102 | CCn1c(OC)nnc1[C@@H](C)NS(=O)(=O)c1cc(F)c(Cl)cc1F [Compound 289]
19 | 57.7 | 98.7 | CCn1c(OC)nnc1[C@@H](C)NS(=O)(=O)c1cc(F)c(F)cc1F [Compound 302]
20 | 62.8 | 94.5 | CCn1c(OC)nnc1[C@@H](C)NS(=O)(=O)c1ccc(Br)cc1Br [Compound 306]
21 | 68 | 96.2 | CCn1c(OC)nnc1[C@@H](C)NS(=O)(=O)c1ccc(F)c(C#N)c1 [Compound 307]
22 | 50.7 | 95.9 | CCn1c(OC)nnc1[C@@H](C)NS(=O)(=O)c1ccc(Cl)cc1F [Compound 312]
23 | 85 | 100 | CCn1c(OC)nnc1[C@@H](C)NS(=O)(=O)c1ccc(C)c(F)c1 [Compound 315]
24 | 95.8 | 97.2 | CCn1c(OC)nnc1[C@@H](C)NS(=O)(=O)c1ccc(Br)c(F)c1 [Compound 317]
25 | 47.9 | 93.5 | CCn1c(OC)nnc1[C@@H](C)NS(=O)(=O)c1cc(C)ccc1F [Compound 320]
26 | 43.5 | 95.9 | CCn1c(OC)nnc1[C@@H](C)NS(=O)(=O)c1cccc(Cl)c1F [Compound 322]
